Experimental data reported in article PMC9611521, “Optimization of Resveratrol Used as a Scaffold to Design Histone Deacetylase (HDAC-1 and HDAC-2) Inhibitors” (Pharmaceuticals, 2022).

How the values were obtained:
Format in all cases: biochemical
HDAC-9 = HDAC-9 (Homo sapiens, UniProt Q9UKV0); experiment: Enzymatic HDAC selectivity panel, HDAC-9; details: compound at 10 µM
Experimental: (§1) Enzymatic assays to evaluate HDAC inhibition were performed, and the design involved three steps: (a) Preliminary screening to identify the most promising compounds; (b) Evaluation by a panel of HDAC isoforms to investigate selectivity; and (c) Determination of IC50 values. Firstly, compounds (4–7; 15–26) were evaluated at 10 µM against HDAC-1 and HDAC-2 (Table 2).
(§2) The enzymatic assay to evaluate HDAC inhibitory effects for all final compounds against the distinct isoforms was carried out in accordance with the previously described procedures (Lopes et al., 2021). All compounds were initially screened at 10 µM against HDAC-1 and HDAC-2. […] All the compounds were dissolved in DMSO. A serial dilution of the compounds was performed in 100% DMSO with the highest concentration at 1 mM. Each intermediate compound dilution (in 100% DMSO) was diluted 10x in assay buffer to form a 10% DMSO intermediate dilution in HDAC assay buffer. 5 µL of this dilution was added to a 50 µL reaction to bring the final concentration of DMSO to 1% in all the reactions. […] The fluorescence intensity was measured at an excitation of 360 nm and emission of 460 nm using a Tecan Infinite M1000 microplate reader, and the percentage of activity was calculated using the formula: % activity = (F − Fb)/(Ft − Fb), where F = the intensity of fluorescence in the presence of the compound. […]

HDAC-10 = target: T1, HDAC-10 (Homo sapiens, UniProt Q969S8); experiment: Enzymatic HDAC selectivity panel, HDAC-10; details: compound at 10 µM
T1 sequence (Q969S8 1-669): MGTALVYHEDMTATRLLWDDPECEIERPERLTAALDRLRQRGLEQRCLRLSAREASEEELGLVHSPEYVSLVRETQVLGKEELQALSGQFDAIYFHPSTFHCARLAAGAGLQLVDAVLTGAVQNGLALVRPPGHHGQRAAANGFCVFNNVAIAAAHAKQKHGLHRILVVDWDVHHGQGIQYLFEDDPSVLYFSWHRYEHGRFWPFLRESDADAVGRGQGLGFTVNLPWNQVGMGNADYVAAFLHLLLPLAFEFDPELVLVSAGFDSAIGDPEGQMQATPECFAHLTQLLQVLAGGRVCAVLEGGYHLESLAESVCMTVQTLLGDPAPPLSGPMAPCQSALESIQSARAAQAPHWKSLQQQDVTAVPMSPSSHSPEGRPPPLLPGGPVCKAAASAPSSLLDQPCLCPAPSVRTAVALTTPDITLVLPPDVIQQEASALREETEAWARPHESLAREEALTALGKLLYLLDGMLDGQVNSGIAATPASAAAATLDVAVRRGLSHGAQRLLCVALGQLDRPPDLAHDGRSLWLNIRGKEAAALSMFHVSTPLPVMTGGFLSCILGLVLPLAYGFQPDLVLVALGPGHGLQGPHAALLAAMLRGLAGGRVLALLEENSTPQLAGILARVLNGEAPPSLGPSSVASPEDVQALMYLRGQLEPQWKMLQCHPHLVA
Experimental: as §1, §2

HDAC-5 = HDAC-5 (Homo sapiens, UniProt Q9UQL6); experiment: Enzymatic HDAC selectivity panel, HDAC-5; details: compound at 10 µM
Experimental: as §1, §2

HDAC-3 = HDAC-3 (Homo sapiens, UniProt O15379); experiment: Enzymatic HDAC selectivity panel, HDAC-3; details: compound at 10 µM
Experimental: as §1, §2

HDAC-7 = target: T2, HDAC-7 (Homo sapiens, UniProt Q8WUI4); experiment: Enzymatic HDAC selectivity panel, HDAC-7; details: compound at 10 µM
T2 sequence (Q8WUI4 1-952): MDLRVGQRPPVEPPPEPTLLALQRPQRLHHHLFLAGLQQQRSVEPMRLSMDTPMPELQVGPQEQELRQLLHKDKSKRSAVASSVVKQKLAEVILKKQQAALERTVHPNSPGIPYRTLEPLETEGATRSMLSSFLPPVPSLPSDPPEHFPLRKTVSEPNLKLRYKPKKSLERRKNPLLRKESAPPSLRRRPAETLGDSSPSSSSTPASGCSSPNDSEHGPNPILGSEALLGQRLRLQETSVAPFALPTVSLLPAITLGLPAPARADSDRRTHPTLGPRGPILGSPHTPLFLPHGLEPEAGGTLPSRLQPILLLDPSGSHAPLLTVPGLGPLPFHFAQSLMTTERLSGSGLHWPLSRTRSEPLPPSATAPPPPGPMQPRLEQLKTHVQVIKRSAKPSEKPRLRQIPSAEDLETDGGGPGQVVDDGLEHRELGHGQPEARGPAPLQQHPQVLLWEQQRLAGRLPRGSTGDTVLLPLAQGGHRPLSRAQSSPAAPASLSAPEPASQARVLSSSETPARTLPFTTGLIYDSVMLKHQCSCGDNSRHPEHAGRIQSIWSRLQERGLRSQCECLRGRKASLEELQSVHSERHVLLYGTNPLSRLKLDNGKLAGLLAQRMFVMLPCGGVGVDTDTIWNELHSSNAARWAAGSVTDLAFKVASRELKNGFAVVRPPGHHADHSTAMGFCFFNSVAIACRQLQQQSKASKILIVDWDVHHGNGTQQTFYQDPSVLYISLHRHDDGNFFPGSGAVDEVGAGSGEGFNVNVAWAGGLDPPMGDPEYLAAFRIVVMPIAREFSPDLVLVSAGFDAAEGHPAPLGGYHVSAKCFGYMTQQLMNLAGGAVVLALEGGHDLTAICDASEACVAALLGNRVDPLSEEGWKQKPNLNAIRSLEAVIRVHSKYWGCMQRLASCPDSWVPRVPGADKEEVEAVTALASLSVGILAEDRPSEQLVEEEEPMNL
Experimental: as §1, §2

HDAC-1 = HDAC-1 (Homo sapiens, UniProt Q13547); experiment: Enzymatic HDAC inhibition assay (fluorescence), HDAC-1
Experimental: as §1
The enzymatic assay to evaluate HDAC inhibitory effects for all final compounds against the distinct isoforms was carried out in accordance with the previously described procedures (Lopes et al., 2021). All compounds were initially screened at 10 µM against HDAC-1 and HDAC-2. […] All the compounds were dissolved in DMSO. A serial dilution of the compounds was performed in 100% DMSO with the highest concentration at 1 mM. Each intermediate compound dilution (in 100% DMSO) was diluted 10x in assay buffer to form a 10% DMSO intermediate dilution in HDAC assay buffer. 5 µL of this dilution was added to a 50 µL reaction to bring the final concentration of DMSO to 1% in all the reactions. Three independent experiments were carried out in triplicate for all experiments. The fluorescence intensity was measured at an excitation of 360 nm and emission of 460 nm using a Tecan Infinite M1000 microplate reader, and the percentage of activity was calculated using the formula: % activity = (F − Fb)/(Ft − Fb), where F = the intensity of fluorescence in the presence of the compound. In the absence of the test compound, the fluorescent intensity (Ft) in each dataset was defined as 100% activity, while in the absence of HDAC, the fluorescent intensity (Fb) in each dataset was set to 0% activity.

Chain of HDAC-1 (Q13547 whole entry): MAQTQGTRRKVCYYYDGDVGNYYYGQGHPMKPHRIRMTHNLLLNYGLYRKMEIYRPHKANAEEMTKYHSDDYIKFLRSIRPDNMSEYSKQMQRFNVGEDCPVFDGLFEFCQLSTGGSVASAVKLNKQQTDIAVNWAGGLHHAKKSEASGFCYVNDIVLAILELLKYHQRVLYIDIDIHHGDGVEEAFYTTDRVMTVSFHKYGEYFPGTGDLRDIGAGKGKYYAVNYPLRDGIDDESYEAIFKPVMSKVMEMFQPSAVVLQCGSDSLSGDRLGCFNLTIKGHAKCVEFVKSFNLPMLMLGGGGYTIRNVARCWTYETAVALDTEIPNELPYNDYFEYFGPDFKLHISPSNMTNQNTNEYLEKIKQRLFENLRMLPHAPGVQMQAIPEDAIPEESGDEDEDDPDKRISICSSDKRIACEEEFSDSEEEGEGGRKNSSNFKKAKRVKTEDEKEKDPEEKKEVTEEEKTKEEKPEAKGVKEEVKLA
Chain of HDAC-3 (O15379 whole entry): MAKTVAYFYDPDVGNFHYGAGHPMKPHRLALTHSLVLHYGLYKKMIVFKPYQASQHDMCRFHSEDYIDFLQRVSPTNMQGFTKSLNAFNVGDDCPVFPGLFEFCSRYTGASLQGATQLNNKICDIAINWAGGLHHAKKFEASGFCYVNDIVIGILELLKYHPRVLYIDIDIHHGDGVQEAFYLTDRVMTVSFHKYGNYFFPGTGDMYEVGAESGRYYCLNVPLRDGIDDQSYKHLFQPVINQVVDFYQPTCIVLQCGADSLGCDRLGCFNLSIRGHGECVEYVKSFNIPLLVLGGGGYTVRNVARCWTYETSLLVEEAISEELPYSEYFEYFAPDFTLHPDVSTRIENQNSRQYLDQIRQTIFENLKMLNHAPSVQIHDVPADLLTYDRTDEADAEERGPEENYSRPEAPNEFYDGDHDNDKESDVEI
Chain of HDAC-3 (Q9Y618 395-489 partner limits assumed): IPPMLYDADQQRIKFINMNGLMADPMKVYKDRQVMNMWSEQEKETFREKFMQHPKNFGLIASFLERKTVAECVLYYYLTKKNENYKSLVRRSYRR
Chain of HDAC-9 (Q9UKV0 whole entry, canonical isoform): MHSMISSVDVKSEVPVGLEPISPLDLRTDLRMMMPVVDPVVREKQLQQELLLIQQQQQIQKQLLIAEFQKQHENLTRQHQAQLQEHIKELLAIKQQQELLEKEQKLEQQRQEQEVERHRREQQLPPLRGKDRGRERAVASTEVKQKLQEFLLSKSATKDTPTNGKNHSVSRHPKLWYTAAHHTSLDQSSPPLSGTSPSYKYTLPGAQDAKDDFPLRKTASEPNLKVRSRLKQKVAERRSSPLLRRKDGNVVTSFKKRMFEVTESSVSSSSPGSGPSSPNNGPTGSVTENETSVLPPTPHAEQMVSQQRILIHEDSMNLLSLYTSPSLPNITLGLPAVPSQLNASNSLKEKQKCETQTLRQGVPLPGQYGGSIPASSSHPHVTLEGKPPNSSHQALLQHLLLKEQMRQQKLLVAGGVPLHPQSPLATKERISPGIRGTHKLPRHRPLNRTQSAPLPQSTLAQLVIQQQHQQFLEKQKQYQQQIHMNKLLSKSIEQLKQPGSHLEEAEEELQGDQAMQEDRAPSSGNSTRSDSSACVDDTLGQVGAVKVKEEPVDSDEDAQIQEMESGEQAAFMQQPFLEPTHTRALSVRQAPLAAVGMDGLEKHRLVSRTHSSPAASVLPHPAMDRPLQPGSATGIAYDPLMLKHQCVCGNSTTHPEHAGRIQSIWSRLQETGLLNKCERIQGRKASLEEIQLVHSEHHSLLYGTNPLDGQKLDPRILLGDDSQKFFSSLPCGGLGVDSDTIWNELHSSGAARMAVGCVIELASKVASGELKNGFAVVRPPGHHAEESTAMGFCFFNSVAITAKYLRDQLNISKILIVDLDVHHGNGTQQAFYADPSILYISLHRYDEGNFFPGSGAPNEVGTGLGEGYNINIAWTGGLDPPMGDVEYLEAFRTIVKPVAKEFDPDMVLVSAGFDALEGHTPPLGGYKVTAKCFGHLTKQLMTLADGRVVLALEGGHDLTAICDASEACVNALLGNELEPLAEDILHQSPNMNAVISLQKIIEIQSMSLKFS
Chain of HDAC-5 (Q9UQL6 whole entry): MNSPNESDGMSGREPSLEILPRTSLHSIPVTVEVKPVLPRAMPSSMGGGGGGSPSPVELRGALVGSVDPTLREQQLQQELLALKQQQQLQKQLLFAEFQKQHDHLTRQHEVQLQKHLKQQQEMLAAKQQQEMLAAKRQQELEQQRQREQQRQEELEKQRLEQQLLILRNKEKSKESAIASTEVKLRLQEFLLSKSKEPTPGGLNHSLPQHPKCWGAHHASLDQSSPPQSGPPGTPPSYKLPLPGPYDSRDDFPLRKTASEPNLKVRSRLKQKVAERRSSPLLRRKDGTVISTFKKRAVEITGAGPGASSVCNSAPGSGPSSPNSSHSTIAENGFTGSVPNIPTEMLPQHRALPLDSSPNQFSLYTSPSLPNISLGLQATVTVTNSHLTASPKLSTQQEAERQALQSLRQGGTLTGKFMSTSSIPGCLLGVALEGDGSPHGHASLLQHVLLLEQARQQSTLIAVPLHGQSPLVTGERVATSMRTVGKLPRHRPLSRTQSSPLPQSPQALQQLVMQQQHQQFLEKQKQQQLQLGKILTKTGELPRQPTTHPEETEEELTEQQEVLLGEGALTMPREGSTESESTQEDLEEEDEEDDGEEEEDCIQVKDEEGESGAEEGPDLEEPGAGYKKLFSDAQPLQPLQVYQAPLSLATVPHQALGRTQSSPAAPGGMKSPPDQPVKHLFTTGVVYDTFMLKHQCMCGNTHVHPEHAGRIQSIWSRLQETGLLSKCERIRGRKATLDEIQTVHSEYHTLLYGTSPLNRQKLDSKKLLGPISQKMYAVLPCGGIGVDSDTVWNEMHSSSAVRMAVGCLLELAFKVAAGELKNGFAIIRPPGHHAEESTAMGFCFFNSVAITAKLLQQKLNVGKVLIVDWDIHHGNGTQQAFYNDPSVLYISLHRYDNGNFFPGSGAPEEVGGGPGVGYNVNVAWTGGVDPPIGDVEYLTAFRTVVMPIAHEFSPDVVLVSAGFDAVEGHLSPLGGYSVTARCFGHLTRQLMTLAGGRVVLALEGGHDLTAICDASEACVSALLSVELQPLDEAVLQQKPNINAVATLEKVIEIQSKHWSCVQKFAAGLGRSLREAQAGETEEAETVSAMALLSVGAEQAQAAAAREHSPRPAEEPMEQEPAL

inhibition at 10 µM (HDAC-9): 7 ± 0.4% | inhibition at 10 µM (HDAC-10): 60 ± 1.4% | inhibition at 10 µM (HDAC-5): 5 ± 0.5% | inhibition at 10 µM (HDAC-3): 82 ± 1.2% | inhibition at 10 µM (HDAC-7): 15 ± 0.7% | inhibition at 10 µM (HDAC-1; compound at 10 µM): 92% | HDAC-1 inhibition (HDAC-1; compound at 10 µM, 10 µM): 93 ± 1.0% | IC50 (HDAC-1; substrate 10 µM): 440 nM
SMILES: Nc1ccc(CCc2ccc(C(=O)Nc3ccccc3N)cc2)cc1 [Compound (5)]
